Experimental findings from patent US9045563B2, “CXC chemokine receptor 4 (CXCR4) antagonistic polypeptide” (priority 2007, dated 2015) are described below.

Ends that are not written are not given here.

Data set [1] deals with T1, CXCR4 (Homo sapiens, UniProt P61073). Nature of the data set: CXCR4 internalization, confocal microscopy of HEK cells expressing EGFP-CXCR4. Type of data set: cell-based. Also noted: expressed in transfected cells; host or cells: HEK293. To be noted: 30 min, 37° C. The text has this: Upon stimulation with the appropriate chemokine, numerous G-protein-coupled receptors get internalized by clathrin-coated pits. As an antagonist of CXCR4 responses, ALB 408-423 may also alter chemokine induced CXCR4 receptor internalization. To analyze the antagonistic properties of ALB408-423 on CXCL12 mediated CXCR4 internalization, EGFP-CXCR4 receptor expressing cells were split and grown for 2 days in 24-well plates on 12-mm glass coverslips coated with rat type I collagen. The cells were then incubated for periods ranging from 0 to 30 min in HEPES-BSA buffer supplemented with protease inhibitors containing either 100 nM CXCL12 or 50 μM of ALB408-423 or 100 nM CXCL12 plus 50 μM of ALB408-423 at 37° C. […] Cells were then analyzed with an inverted microscope (LEICA) and a laser scanning confocal imaging system (LEICA AOBS SP2 MP) using a HCX PL APO 1bd.BL 63X 1.40 OIL UV objective (n° 506192). […] EGFP was excited with the 488 nm laser-line of the Argon laser and detected and amplified by one photomultiplier tube (PMT) in the so-called mCFP Channel from 495 to 550 nm (PMT1 610 High Voltage -HV-, offset 0). […]
T1 sequence (P61073 whole entry): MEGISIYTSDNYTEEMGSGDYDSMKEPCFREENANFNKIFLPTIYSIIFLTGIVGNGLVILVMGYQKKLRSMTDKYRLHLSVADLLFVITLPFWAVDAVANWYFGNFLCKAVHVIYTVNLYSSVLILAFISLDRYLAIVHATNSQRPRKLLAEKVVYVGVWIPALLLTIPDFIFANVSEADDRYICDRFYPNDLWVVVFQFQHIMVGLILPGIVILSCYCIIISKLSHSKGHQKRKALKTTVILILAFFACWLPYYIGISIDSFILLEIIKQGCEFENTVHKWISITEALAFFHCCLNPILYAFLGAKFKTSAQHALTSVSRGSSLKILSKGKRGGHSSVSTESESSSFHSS
FIG. 15. […] Receptor endocytosis was monitored on HEK cells expressing EGFP-CXCR4 and analyzed by confocal microscopy immediately (0 min, upper panel) after addition of CXCL12, ALB408-423 or both compounds, or 30 min later (lower panel). […]

Data set [2] has as its target T1, CXCR4. Kind of data set: Ca2+ mobilization in CXCR4 expressing HEK293 cells (indo-1). Type of data set: cell-based. Also noted: expressed in transfected cells. The protocol: (§1) Ca^2+ responses were recorded.
(§2) FIG. 17. CXCR4 antagonistic activities of ALB derivatives. […] CXCR4 or CCR5 expressing HEK293 cells were treated with CXCR4 agonist CXCL12 (10 nM) or CCR5 agonist CCL5 (20 nM), respectively, in the absence (no ALB) or presence of indicated ALB derivatives (50 μM). Calcium responses were recorded as described. Data shown are mean values±standard deviation derived from duplicates relative to peak calcium responses after treatment with agonists only (100%). […] CXCR4 expressing HEK293 cells were treated with Texas Red labeled CXCL12 (CXCL12-Tr) in the presence or absence of ALB peptides. Real-time fluorescence monitoring of ligand-receptor interactions was carried out as described. Shown are bound CXCL12-Tr levels in the presence of ALB peptides relative to CXCL12-Tr only treated cells (100% bound). Values were derived from a duplicate experiment.

Data set [3] concerns CCR5 tropic HIV-1 variants. Kind of data set: Infection of TZM-bl cells by R5 tropic HIV-1 variants, GalScreen. Type of data set: cell-based. How it is done: 5000 TZM-bl cells were seeded in 100 μl of DMEM (10% FCS, 100 U/ml of penicillin G and 100 μg/ml of streptomycin sulfate). ALB408-423 was dissolved in PBS (10 mg/ml). One day later, 20 μl serial dilutions of ALB408-423 in PBS were added to cells and cells were subsequently infected with 0.5 ng of p24 antigen HIV-1 in a total volume of 200 μl. HIV-1 molecular clones differing in coreceptor tropism were used and generated as described (Papkalla et al., J. Virol. 76: 8455-9, 2002).
FIG. 3: Chemically synthesized ALB408-423 specifically blocks X4 tropic HIV-1 infection. TZM-bl cells containing indicated dilutions of peptide were infected with HIV-1 variants differing in their coreceptor tropism. 3 days later Gal Screen assay was used to measure infection rates. […] B) Infection rates in the presence of 500 μg/ml ALB408-423 showing that the peptide specifically blocks X4 but not R5 tropic HIV-1 infection. Data shown are mean values±standard deviation derived from triplicate infections relative to PBS containing cells (100% infection).
After 3 days, infection was detected using GalScreen assay (TROPIX) (example 1). […] In contrast, CCR5 tropic HIV-1 variants were not inhibited even in the presence of very high doses of ALB408-423 (500 μg/ml) (FIG. 3B). Due to the specific inhibition of the infection caused by X4-tropic HIV-1 variants, it is to be assumed that ALB408-423 interacts with the chemokine receptor CXCR4.
Virus stocks were first titrated on TZM-bl cells. Then TZM-bl cells containing 100 μM of peptides were infected with infectivity normalized amounts of X4, dualtropic (X4/R5) or R5 tropic HIV-1.
FIG. 10. ALB408-423 and truncated ALB derivatives specifically block X4 tropic HIV-1 infection. TZM-bl cells either containing PBS or 100 μM of indicated peptides were infected with normalized infectivities of X4, dualtropic or R5 tropic HIV-1 clones. Infection rates were measured 2 days post infection using the GalScreen assay. Shown are mean values (% of PBS treated control)±standard deviations derived from triplicate measurements.

The next data set concerns the target T2, CCR5 (Homo sapiens, UniProt P51681).
T2 construct: expressed in transfected cells; host or cells: HEK293
Nature of the data set: Ca2+ mobilization in HEK CCR5 cells (indo-1). Type of data set: cell-based. To be noted: 50 μM peptide. How it is done:
as §1, §2
On the technique in general: Calcium assays in cells follow changes in intracellular calcium, usually with a dye or a luminescent sensor.

The next data set has as its system X4 tropic HIV-2ROD10. To be noted: read-out: IC50, X4 tropic HIV-2 infection (Example 5), TZM-bl cells.
Data set [4] is described as follows: Isoelectric point of the peptide. Type of data set: physicochemical.
Data set [5] has as its system CCR5 tropic HIV-1 NL4-3 92th014, HIV-1-7312 and SIVmac239. Nature of the data set: Infection of TZM-bl cells by R5 tropic lentiviruses. Type of data set: cell-based, SIV.

T2 sequence (P51681 whole entry): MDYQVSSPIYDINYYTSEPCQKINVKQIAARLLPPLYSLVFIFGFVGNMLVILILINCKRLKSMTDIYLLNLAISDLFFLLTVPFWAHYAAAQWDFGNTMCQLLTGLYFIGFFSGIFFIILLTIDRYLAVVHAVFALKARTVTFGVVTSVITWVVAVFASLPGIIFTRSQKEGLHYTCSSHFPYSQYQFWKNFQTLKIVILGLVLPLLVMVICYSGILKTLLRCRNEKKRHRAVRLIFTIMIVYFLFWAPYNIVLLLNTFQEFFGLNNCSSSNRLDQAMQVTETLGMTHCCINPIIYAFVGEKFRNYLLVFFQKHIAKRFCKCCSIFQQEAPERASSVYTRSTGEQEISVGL
Experimental for X4 tropic HIV-2ROD10: Two days later infection rates were determined and calculated as described.
After three days infection rates were determined using the Gal Screen assay. Shown are mean values±standard deviation derived from triplicate measurements.

The term Ki denotes a measure of affinity in units of concentration, obtained from inhibition or displacement. Low values mean a stronger hold on the target, high ones a looser hold on the target. For orientation: IC50 means the concentration needed to halve the response being measured. In the case of “LVRYTKKVPQVSTPTL [ALB408-423, LVRYTKKVPQVSTPTL]”, at CXCR4 [1] (100 nM CXCL12 plus 50 μM peptide), the “effect on CXCL12 mediated CXCR4 internalization” value is recorded as “blocked CXCL12 mediated CXCR4 internalization”. In addition, the “CXCR4 internalization by the peptide alone” value at CXCR4 [1] (50 μM) is “did not induce internalization of the receptor”. The sequence also gave an inhibition constant Ki on CXCR4 [2] of 46.4 µM. Also, the “inhibition of CXCL12-evoked calcium responses” value at CXCR4 [2] (50 μM peptide, HEK EGFP-CXCR4 cells) was determined as 70%. In addition, at CXCR4 [2] (50 μM peptide, no chemokine), the “agonism: calcium response induced by the peptide alone, CXCR4” value is listed as “does not induce any calcium response”. For the same sequence, the “effect on R5 tropic HIV-1 infection” value in data set [3] (100 μM peptide) is given as “no effect”. In addition, the “inhibition of CCR5 tropic HIV-1 variants” value in data set [3] (500 μg/ml) is “not inhibited”. Besides, the “effect on CCL5-evoked calcium responses” value at CCR5 (HEK CCR5 cells) is “no effect”. On CCR5 (no chemokine), the “agonism: calcium response induced by the peptide alone, CCR5” value was “does not induce any calcium response”. Also, in the data set with X4 tropic HIV-2ROD10, the IC50 lay in the range of 10 to 20 µM. For the same sequence, the “isoelectric point (pI)” value in data set [4] was 10.3. Moreover, the “effect on R5 tropic lentiviral infection” value in data set [5] was “no effect”.
